Where two headings read alike, the source gives them in different places.
Tests used:
PTP1B (PTP1B1-321) = molecular target: T1, PTP1B (PTP1B1-321) (Homo sapiens, UniProt P18031); assay: PTP1B-catalyzed hydrolysis of pNPP in the presence of terpenoids (enzyme kinetics, IC50 from best-fit models); type: biochemical, H. sapiens; conditions: for IC50: 15 mM pNPP, 10% DMSO; for Ki: PTP1B1-321
T1 construct: His-tag; made in house; host or cells: E. coli BL21 (DE3), pET21b
T1 sequence (P18031 1-321): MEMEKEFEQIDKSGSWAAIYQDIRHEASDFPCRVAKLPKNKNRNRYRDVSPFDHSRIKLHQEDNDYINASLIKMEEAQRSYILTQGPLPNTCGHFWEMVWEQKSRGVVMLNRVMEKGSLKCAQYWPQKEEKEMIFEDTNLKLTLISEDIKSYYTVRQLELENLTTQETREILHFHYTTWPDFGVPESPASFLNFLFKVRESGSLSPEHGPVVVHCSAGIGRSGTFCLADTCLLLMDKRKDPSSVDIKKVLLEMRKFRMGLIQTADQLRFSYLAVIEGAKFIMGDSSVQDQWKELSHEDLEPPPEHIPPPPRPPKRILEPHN
Description: Enzyme kinetics. To examine terpenoid-mediated inhibition, PTP1B-catalyzed hydrolysis of p-nitrophenyl phosphate (pNPP) was measured in the presence of various concentrations of terpenoids. Each reaction included PTP1B ([…]), pNPP (0.33, 0.67, 2, 5, 10, and 15 mM), inhibitors (110 μM, 50 μM, and 15 μM for amorphadiene; 100 μM, 50 μM, and 16.7 μM for taxadiene), and buffer (50 mM HEPES pH=7.5, 0.5 mM TCEP, 50 μg/ml BSA, 10% DMSO). The formation of p-nitrophenol was monitored by measuring absorbance at 405 nm every 10 seconds for 5 minutes on a Spectramax M2 plate reader.
Kinetic models were evaluated in three steps: (i) Initial-rate measurements collected in the absence and presence of inhibitors were fitted to Michaelis-Menten and inhibition models, respectively (here, the nlinfit and fminsearch functions from MATLAB were used). (ii) An F-test was used to compare the mixed model to the single-parameter model with the least sum squared error (here, the fcdf function from MATLAB was used to assign p-values), and the mixed model was accepted when p<0.05.
The MATLAB function “nlparci” was used to determine the confidence intervals of kinetic parameters, and those intervals were propagated to estimate corresponding confidence on IC50's.
Enzyme kinetics. To examine terpenoid-mediated inhibition, we measured PTP-catalyzed hydrolysis of p-nitrophenyl phosphate (pNPP) or 4-methylumbelliferyl phosphate (4-MUP, used when KM for pNPP was large) in the presence of various concentrations of terpenoids. Each reaction included PTP (0.05 μM PTP1B/TCPTP or 0.1 μM SHP1/SHP2 in 50 mM HEPES, 0.5 mM TCEP, 50 μg/ml BSA), pNPP (0.33, 0.67, 2, 5, 10, and 15 mM) or 4-MUP (0.13, 0.27, 0.8, 2.27, 2.93, 4.53, 7.07, and 8 mM), inhibitor (with concentrations listed in the figures), buffer (50 mM HEPES pH=7.3, 50 μg/ml BSA), and DMSO at 10% v/v. We monitored the formation of p-nitrophenol by measuring absorbance at 405 nm every 10 seconds for 5 minutes on a SpectraMax M2 plate reader and the formation of 4-methylumbelliferyl by measuring fluorescence at 450 nm (370 nm ex, 435 nm cutoff, medium gain).
We used a custom MATLAB script to process all raw kinetic data. This script removed all concentration values that fell outside of either (i) the range of our standard curve (absorbance/fluorescence vs. μM; FIG. 39) or (ii) the initial rate regime (>10% of the pNPP or 4-MUP concentration used in the assay). When this step reduced kinetic dataset to fewer than ten points, we re-measured those datasets to collect at least ten. We fit final datasets, in turn, with a linear regression model (using Matlab's backslash operator).
We evaluated kinetic models in three steps: (i) We fit initial-rate measurements collected in the absence and presence of inhibitors to Michaelis-Menten and inhibition models, respectively (here, we used the nlinfit and fminsearch functions from MATLAB; TABLE 12). (ii) We used an F-test to compare the mixed model to the single-parameter model with the least sum squared error (here, we used the fedf function from MATLAB to assign p-values), and we accepted the mixed model when p<0.05.

[1] = tested on: insulin receptor (IR) phosphorylation (PTP1B-mediated) in HEK293T/17 cells; assay: ELISA of insulin receptor (IR) phosphorylation in HEK293T/17 cells; type: cell-based; conditions: 3% DMSO, 10 minutes, starved HEK293T/17 cells, vs 3% DMSO control
Text: Analysis of PTP1B inhibition in HEK293TCells. We prepared HEK293T/17 cells for an enzyme-linked immunosorbent assay (ELISA) by growing them in 75 cm^2 culture flasks (Corning) with DMEM media supplemented with 10% FBS, 100 units/ml penicillin, and 100 units/ml streptomycin. We replaced the media every day for 3-5 days until the cells reached 80-100% confluency.
We measured the influence of inhibitors on insulin receptor (IR) phosphorylation by using an IR-specific ELISA (FIG. 35). Briefly, we starved cells for 48 hours in FBS-free media and incubated the with inhibitors (all at 3% DMSO) for 10 minutes. After incubation, we lysed cells with lysis buffer (9803, Cell Signaling Technology) supplemented with 1× halt phosphatase inhibitor cocktail and 1× halt protease inhibitor cocktail (Thermo Fisher Scientific) for 10 min, pelleted the cell debris, and used the lysis buffer to dilute each sample to 60 mg/ml total protein. We measured IR phosphorylation in subsequent dilutions of the 60 mg/ml samples with the PathScan® Phospho-Insulin Receptor β (panTyr) Sandwich ELISA Kit (Cell Signaling Technology; #7082).
Statistical analysis and reproducibility. We determined statistical significance (FIG. 23H) with a two-tailed Student's t-test (details in TABLE 14), and we used an F-test to compare one- and two-parameter models of inhibition (TABLE 12).

PTP1B = molecular target: T2, PTP1B (Homo sapiens, UniProt P18031); assay: X-ray crystallography of PTP1B soaked with ligand; type: binding, H. sapiens
T2 construct: In this study, we used a well-studied truncation variant (i.e., PTP1B1-321); His-tag; made in house; host or cells: E. coli BL21 (DE3), pET21b
T2 sequence (P18031 1-321): T1 sequence (P18031 1-321)
Description: X-ray crystallography. We prepared crystals of PTP1B by using hanging drop vapor diffusion. In brief, we added 2 μL of PTP1B (~600 μM PTP1B, 50 mM HEPES, pH 7.3) to 6 μL of crystallization solution (100 mM HEPES, 200 mM magnesium acetate, and 14% polyethylene glycol 8000, pH 7.5) and incubated the resulting droplets over crystallization solution for one week at 4° C. (EasyXtal CrystalSupport, Qiagen). We soaked crystals with ligand by transferring them to droplets formed with 6 μL of crystallization solution and 1 μL of ligand solution (10 mM in DMSO), which we incubated for 2-5 days at 4° C. We prepared all […] for freezing by soaking them in cryoprotectant formed from a 70/30 (v/v) mixture of buffer (100 mM HEPES, 200 mM magnesium acetate, and 25% polyethylene glycol 8000, pH 7.5) and glycerol.
We collected X-ray diffraction data through the Collaborative Crystallography Program at Lawrence Berkeley National Lab (ALS ENABLE, beamline 8.2.1, 100 K, 1.00003 Å). We performed integration, scaling, and merging of X-ray diffraction data using the xia2 software package^79, and we carried out molecular replacement and structure refinement with the PHENIX graphical interface,^80 supplemented with manual model adjustment in COOT^81 and one round of PDB-REDO^82 (the latter, only for the PTP1B-AD complex).

[2] = competitive model of inhibition, read-out: Fit par. Ki, competitive model
[3] = mixed model, uncompetitive constant, read-out: Fit par. Ki,u, mixed model
[4] = noncompetitive model of inhibition, read-out: Fit par. Ki, noncompetitive model
[5] = uncompetitive model of inhibition, read-out: Fit par. Ki, uncompetitive model

IC50 (PTP1B (PTP1B1-321); Example 2, HEPES pH 7.3, ± 95% confidence interval)	Ki (PTP1B (PTP1B1-321); [2])	Ki (PTP1B (PTP1B1-321); mixed model, competitive constant, read-out: Fit par. Ki,c, mixed model)	Ki (PTP1B (PTP1B1-321); [3])	Ki (PTP1B (PTP1B1-321); [4])	Ki (PTP1B (PTP1B1-321); [5])	solubility (crystal soaking experiments) (PTP1B)	SMILES	IR phosphorylation (ELISA signal) ([1]; 930 μM)	IR phosphorylation (ELISA signal) ([1]; 930 μM, listed as DHA)	IC50 (PTP1B (PTP1B1-321); Example 1, HEPES pH 7.5)	model (mode) of PTP1B inhibition from Michaelis-Menten fits (PTP1B (PTP1B1-321); pNPP initial rates)	IR phosphorylation (ELISA signal) ([1]; 405 μM)	IR phosphorylation (ELISA signal) ([1]; 405 μM, listed as ABOL)
165 ± 33 µM	14.8 µM	5690 µM	169 µM	190 µM	168 µM	–	CC1=C[C@@H]2C(=C(C)CC[C@H]2C(C)C)CC1 [(+)-1 (10),4-cadinadiene]	–	–	–	–	–	–
–	178 µM	–	469 µM	541 µM	469 µM	–	CC1=C[C@H]2[C@@H](CC1)[C@H](C)CC[C@H]2[C@@H](C)C(=O)O [dihydroartemisinic acid, reference compound]	reduction in signal	reduced signals	–	–	–	–
–	–	–	–	–	–	–	CC1=CCC[C@@]2(C)CCC3=C(C)CC[C@@H](C[C@H]12)C3(C)C [taxadiene]	–	–	119 µM	mixed inhibition	–	–
–	178 µM	–	469 µM	541 µM	469 µM	soluble	CC(C)=CCC[C@](C)(O)[C@@H]1CC=C(C)CC1 [α-bisabolol, reference compound]	–	–	–	–	reduction in signal	reduced signals

From patent publication US12729458B2, “Discovery and evolution of biologically active metabolites” (The Regents of the University of Colorado, a Body Corporate, priority 2020, dated 2026)
